Reference: patent US8598202B2, “Aryl-hydroxyethylamino-pyrimidines and triazines as modulators of fatty acid amide hydrolase” (Janssen Pharmaceutica NV, priority 2008, dated 2013)
Counter-ions that a name gives are not always drawn.

Assays:
[1] = biological target: T1, Rat FAAH-1 (Rattus norvegicus, UniProt P97612); assay: Assay Method 2: rat FAAH-1 assay, 3H-anandamide hydrolysis in homogenate of SK-N-MC cells transfected with rat FAAH
T1 sequence (P97612 1-579): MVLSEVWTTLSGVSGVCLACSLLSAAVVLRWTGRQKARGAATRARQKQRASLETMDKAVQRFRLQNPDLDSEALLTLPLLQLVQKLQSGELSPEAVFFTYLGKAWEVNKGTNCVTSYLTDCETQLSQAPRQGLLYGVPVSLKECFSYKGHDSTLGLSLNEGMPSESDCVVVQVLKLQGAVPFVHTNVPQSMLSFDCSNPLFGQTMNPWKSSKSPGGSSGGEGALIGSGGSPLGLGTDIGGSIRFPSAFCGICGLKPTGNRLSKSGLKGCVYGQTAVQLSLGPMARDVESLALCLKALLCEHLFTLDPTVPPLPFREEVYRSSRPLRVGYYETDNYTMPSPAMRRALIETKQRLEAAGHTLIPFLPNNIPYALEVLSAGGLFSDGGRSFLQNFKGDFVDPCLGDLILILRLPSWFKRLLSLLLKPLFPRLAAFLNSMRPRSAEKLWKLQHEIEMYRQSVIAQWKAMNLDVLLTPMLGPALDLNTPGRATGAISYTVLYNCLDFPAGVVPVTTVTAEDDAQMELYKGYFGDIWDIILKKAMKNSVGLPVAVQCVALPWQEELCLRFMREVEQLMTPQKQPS
Procedure: The assay mixture consisted of 50 μL of the cell homogenate, 10 μL of the test compound, and 40 μL of anandamide [1-^3H-ethanolamine] (^3H-AEA, Perkin-Elmer, 10.3 Ci/mmol), which was added last, for a final tracer concentration of 80 nM. The reaction mixture was incubated at rt for 1 h. During the incubation, 96-well Multiscreen filter plates (catalog number MAFCNOB50; Millipore, Bedford, Mass., USA) were loaded with 25 μL of activated charcoal (Multiscreen column loader, catalog number MACL09625, Millipore) and washed once with 100 μL of MeOH. […] After the 1 h incubation, 60 μL of the reaction mixture were transferred to the charcoal plates, which were then assembled on top of the DYNEX plates using Centrifuge Alignment Frames (catalog number MACF09604, Millipore). The unbound labeled ethanolamine was centrifuged through to the bottom plate (5 min at 2000 rpm), which was preloaded with the scintillant, as described above. The plates were sealed and left at rt for 1 h before counting on a Hewlett Packard TopCount.

[2] = biological target: T2, FAAH (Homo sapiens, UniProt O00519); assay: Assay Method 1: FAAH assay, 3H-anandamide hydrolysis in homogenate of T84 cells or SK-N-MC cells transfected with human FAAH
T2 sequence (O00519 1-579): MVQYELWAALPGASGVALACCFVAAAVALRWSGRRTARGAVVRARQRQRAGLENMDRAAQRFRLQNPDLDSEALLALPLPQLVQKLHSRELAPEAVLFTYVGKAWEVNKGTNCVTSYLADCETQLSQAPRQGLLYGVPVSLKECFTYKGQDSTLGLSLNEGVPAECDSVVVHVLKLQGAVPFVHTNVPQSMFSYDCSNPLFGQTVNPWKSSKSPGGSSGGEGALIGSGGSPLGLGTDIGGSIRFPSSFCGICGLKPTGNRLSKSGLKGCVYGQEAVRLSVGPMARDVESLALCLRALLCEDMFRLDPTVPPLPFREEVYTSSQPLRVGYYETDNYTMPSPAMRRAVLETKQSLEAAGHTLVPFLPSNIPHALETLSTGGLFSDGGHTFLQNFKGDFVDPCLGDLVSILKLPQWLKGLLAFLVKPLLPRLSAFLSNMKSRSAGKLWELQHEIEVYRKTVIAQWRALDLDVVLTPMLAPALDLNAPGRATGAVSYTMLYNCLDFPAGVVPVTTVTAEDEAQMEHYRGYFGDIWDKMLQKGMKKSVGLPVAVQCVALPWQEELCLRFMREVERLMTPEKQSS

IC50 [1] [nM]	IC50 [2] [nM]	SMILES
43	108	OC(CNc1cc(-c2ccc(C(F)(F)F)c(Cl)c2)ncn1)c1cc2ccccc2s1 (centres unmarked) [Example 196, 1-(1-Benzothiophen-2-yl)-2-({6-[3-chloro-4-(trifluoromethyl)phenyl]pyrimidin-4-yl}amino)ethanol]
50	56	OC(CNc1cc(-c2ccc(C(F)(F)F)c(Cl)c2)ncn1)c1c(F)cccc1F (centres unmarked) [Example 211, 2-({6-[3-Chloro-4-(trifluoromethyl)phenyl]pyrimidin-4-yl}amino)-1-(2,6-difluorophenyl)ethanol]
39	65	OC(CNc1cc(-c2ccc(C(F)(F)F)c(Cl)c2)ncn1)c1ccccc1F (centres unmarked) [Example 212, 2-({6-[3-Chloro-4-(trifluoromethyl)phenyl]pyrimidin-4-yl}amino)-1-(2-fluorophenyl)ethanol]
14	15	COc1nc(NC[C@H](O)c2ccccc2)cc(-c2ccc(C(F)(F)F)c(Cl)c2)n1 [Example 164, (1R)-2-({6-[3-Chloro-4-(trifluoromethyl)phenyl]-2-methoxypyrimidin-4-yl}amino)-1-phenylethanol trifluoroacetic acid salt]
500	28	OC(CNc1cc(-c2ccc(C(F)(F)F)c(Cl)c2)ncn1)c1ccc(N2CCCC2)cc1 (centres unmarked) [Example 208, 2-({6-[3-Chloro-4-(trifluoromethyl)phenyl]pyrimidin-4-yl}amino)-1-(4-pyrrolidin-1-ylphenyl)ethanol]
654	210	O[C@@H](CNc1cc(-c2ccc(F)c(Cl)c2)ncn1)c1ccccc1 [Example 83, (1R)-2-{[6-(3-Chloro-4-fluorophenyl)pyrimidin-4-yl]amino}-1-Phenylethanol trifluoroacetic acid salt]
20	60	CSc1ccc(C(O)CNc2cc(-c3ccc(C(F)(F)F)c(Cl)c3)ncn2)cc1 (centres unmarked) [Example 167, 2-({6-[3-Chloro-4-(trifluoromethyl)phenyl]pyrimidin-4-yl}amino)-1-[4-(methylsulfanyl)phenyl]ethanol]
8000	> 10000	OC(CNc1cc(-c2ccc(C(F)(F)F)c(Cl)c2)ncn1)c1cc(C(F)(F)F)cc(C(F)(F)F)c1 (centres unmarked) [Example 217, 1-[3,5-Bis(trifluoromethyl)phenyl]-2-({6-[3-chloro-4-(trifluoromethyl)phenyl]pyrimidin-4-yl}amino)ethanol]
3	3	O[C@@H](CNc1cc(-c2ccc3c(C(F)(F)F)noc3c2)ncn1)c1ccc(F)cc1 [Example 177, (1R)-1-(4-Fluorophenyl)-2-({6-[3-(trifluoromethyl)-1,2-benzisoxazol-6-yl]pyrimidin-4-yl}amino)ethanol trifluoroacetic acid salt]
111	67	OC(CNc1cc(-c2ccc(C(F)(F)F)c(Cl)c2)ncn1)c1cc(-c2ccccc2)no1 (centres unmarked) [Example 207, 2-({6-[3-Chloro-4-(trifluoromethyl)phenyl]pyrimidin-4-yl}amino)-1-(3-phenylisoxazol-5-yl)ethanol]
16	100	OC(CNc1cc(-c2ccc(C(F)(F)F)c(Cl)c2)ncn1)c1cccc(C(F)(F)F)c1 (centres unmarked) [Example 135, 2-({6-[3-Chloro-4-(trifluoromethyl)phenyl]pyrimidin-4-yl}amino)-1-[3-(trifluoromethyl)phenyl]ethanol trifluoroacetic acid salt]

Further lines, the molecule ahead of its results:

SMILES	IC50 [1] [nM]	IC50 [2] [nM]
N#Cc1ccc(-c2cc(NC[C@H](O)c3ccccc3)ncn2)cc1F [Example 88, 2-Fluoro-4-(6-{[(2R)-2-hydroxy-2-phenylethyl]amino}pyrimidin-4-yl)benzonitrile trifluoroacetic acid salt]	33	65
CSc1cccc(-c2cc(NC[C@H](O)c3ccccc3)ncn2)c1 [Example 84, (1R)-2-({6-[3-(Methylsulfanyl)phenyl]pyrimidin-4-yl}amino)-1-phenylethanol trifluoroacetic acid salt]	965	44
O[C@@H](CNc1cc(-c2ccc(Cl)c(Cl)c2)nc(C2CC2)n1)c1ccccc1 [Example 136, (1R)-2-{[2-Cyclopropyl-6-(3,4-dichlorophenyl)pyrimidin-4-yl]amino}-1-phenylethanol]	340	84
C[C@H](Nc1cc(-c2ccc(C(F)(F)F)c(Cl)c2)ncn1)[C@H](O)c1ccccc1 [Example 179]	40	9
O[C@@H](CNc1cc(-c2ccc(N3CCOCC3)nc2)ncn1)c1ccccc1 [Example 70, (1R)-2-{[6-(6-Morpholin-4-ylpyridin-3-yl)pyrimidin-4-yl]amino}-1-Phenylethanol]	> 10000	800
Cc1n[nH]c2cc(-c3cc(NC[C@H](O)c4ccccc4)ncn3)ccc12 [Example 140, (1R)-2-{[6-(3-Methyl-1H-indazol-6-yl)pyrimidin-4-yl]amino}-1-phenylethanol trifluoroacetic acid salt]	265	127
O[C@@H](CNc1cc(-c2ccc3ncccc3c2)ncn1)c1ccccc1 [Example 170, (1R)-1-Phenyl-2-[(6-quinolin-6-ylpyrimidin-4-yl)amino]ethanol]	4000	81
CCCCOc1ccc(-c2cc(NC[C@H](O)c3ccccc3)ncn2)cc1F [Example 33, (1R)-2-{[6-(4-Butoxy-3-fluorophenyl)pyrimidin-4-yl]amino}-1-phenylethanol trifluoroacetic acid salt]	2000	270
CC(C)Sc1ccc(-c2cc(NC[C@H](O)c3ccccc3)ncn2)cc1 [Example 91, (1R)-2-[(6-{4-[(1-Methylethyl)sulfanyl]phenyl}pyrimidin-4-yl)amino]-1-phenylethanol trifluoroacetic acid salt]	57	3
O[C@@H](CNc1cc(-c2cccc(C(F)(C(F)(F)F)C(F)(F)F)c2)ncn1)c1ccccc1 [Example 220, (1R)-Phenyl-2-{6-[3-(1,2,2,2-tetrafluoro-1-trifluoromethyl-ethyl)-phenyl]-Pyrimidin-4-ylamino}-ethanol]	690	42
OC(CNc1cc(-c2c(C(F)(F)F)cccc2C(F)(F)F)ncn1)c1ccccc1 (centres unmarked) [CE1, 2-[6-(2,6-Bis-trifluoromethyl-phenyl)-pyrimidin-4-ylamino]-1-phenyl-ethanol, reference compound]	> 10000	> 10000
CCc1ccc(-c2cc(NCC(O)c3ccccc3)ncn2)cc1 (centres unmarked) [Example 6, 2-{[6-(4-Ethylphenyl)pyrimidin-4-yl]amino}-1-phenylethanol]	233	33
O=[N+]([O-])c1cccc(-c2cc(NCC(O)c3ccccc3)ncn2)c1 (centres unmarked) [Example 234, 2-[6-(3-Nitro-phenyl)-pyrimidin-4-ylamino]-1-phenyl-ethanol]	> 10000	> 10000
O[C@@H](CNc1cc(-c2ccc3nonc3c2)ncn1)c1ccccc1 [Example 45, (1R)-2-{[6-(2,1,3-Benzoxadiazol-5-yl)pyrimidin-4-yl]amino}-1-Phenylethanol trifluoroacetic acid salt]	600	150
